According to the supplement of paper PMC13380429:

Key:
Conditions in all cases: 72 h
Calu-3 [1] = experiment: relative viability EC50 (midpoint between 100% and the lowest measured viability); higher = less toxic
Vero E6 [2] = experiment: as above
Caco-2 [3] = experiment: as above
U2OS [4] = experiment: as above
HepG2 [5] = experiment: as above
Calu-3 [6] = experiment: drug sensitivity score (DSS) for viability; higher = more toxic; extreme values may be limits of the assay
Vero E6 [7] = experiment: as above
Caco-2 [8] = experiment: as above
U2OS [9] = experiment: as above
HepG2 [10] = experiment: as above
Calu-3 [11] = experiment: cell viability relative to DMSO; higher = less toxic
Vero E6 [12] = experiment: as above
Caco-2 [13] = experiment: as above
U2OS [14] = experiment: as above
HepG2 [15] = experiment: as above

Structure (SMILES)	relative viability EC50 (Calu-3 [1])	relative viability EC50 (Vero E6 [2])	relative viability EC50 (Caco-2 [3])	relative viability EC50 (U2OS [4])	relative viability EC50 (HepG2 [5])	drug sensitivity score (Calu-3 [6])	drug sensitivity score (Vero E6 [7])	drug sensitivity score (Caco-2 [8])	drug sensitivity score (U2OS [9])	drug sensitivity score (HepG2 [10])	cell viability (Calu-3 [11]; 1 nM)	cell viability (Calu-3 [11]; 10 nM)	cell viability (Calu-3 [11]; 100 nM)	cell viability (Calu-3 [11]; 1000 nM)	cell viability (Calu-3 [11]; 10000 nM)	cell viability (Vero E6 [12]; 1 nM)	cell viability (Vero E6 [12]; 10 nM)	cell viability (Vero E6 [12]; 100 nM)	cell viability (Vero E6 [12]; 1000 nM)	cell viability (Vero E6 [12]; 10000 nM)	cell viability (Caco-2 [13]; 1 nM)	cell viability (Caco-2 [13]; 10 nM)	cell viability (Caco-2 [13]; 100 nM)	cell viability (Caco-2 [13]; 1000 nM)	cell viability (Caco-2 [13]; 10000 nM)	cell viability (U2OS [14]; 1 nM)	cell viability (U2OS [14]; 10 nM)	cell viability (U2OS [14]; 100 nM)	cell viability (U2OS [14]; 1000 nM)	cell viability (U2OS [14]; 10000 nM)	cell viability (HepG2 [15]; 1 nM)	cell viability (HepG2 [15]; 10 nM)	cell viability (HepG2 [15]; 100 nM)	cell viability (HepG2 [15]; 1000 nM)	cell viability (HepG2 [15]; 10000 nM)
CCOc1ccc(Nc2nc(-c3c(C)nc4ccccn34)cs2)cc1 [JK-184]	0.715 µM	0.152 µM	0.578 µM	0.209 µM	1.68 µM	8.3	15.5	9.2	16	5.3	101%	90.5%	103%	57.6%	39.4%	98.3%	97.6%	77.8%	31.3%	29.5%	102%	96.9%	91.3%	57.4%	33.2%	106%	100%	79.9%	26.9%	19.7%	94.9%	99.5%	90.6%	86.9%	40.1%
O=C1Nc2ccccc2C12OCC1(CO2)COC2(OC1)C(=O)Nc1ccccc12 (stereo not given) [JW-67]	> 10 µM	> 10 µM	> 10 µM	> 10 µM	> 10 µM	0.1	0.1	0	0	0	90.8%	92.1%	103%	87.2%	85.3%	88.4%	103%	91.2%	90.5%	86%	87.2%	92.5%	91.8%	93.2%	88.1%	97.6%	97.5%	102%	94.6%	92.5%	97.1%	98.6%	93.6%	98.4%	105%
CC(C)n1nc(-c2ccc3oc(N)nc3c2)c2c(N)ncnc21 [MLN0128]	0.0095 µM	0.0855 µM	0.0309 µM	0.049 µM	0.0449 µM	27.5	19.7	23.2	24.4	24.6	88.6%	61.2%	31.5%	28.4%	22.8%	97.9%	93.5%	48.7%	35.6%	16.5%	102%	72%	45.2%	26.1%	20.1%	100%	92.1%	35%	18.4%	12%	106%	91.9%	32.4%	26.6%	12.9%
OC[C@H]1O[C@@H](n2cnc3c(NC4CCCC4)ncnc32)[C@H](O)[C@@H]1O [N6-cyclopentyladenosine]	> 10 µM	> 10 µM	> 10 µM	> 10 µM	> 10 µM	0	0	0	0	0	108%	96.6%	94%	102%	100%	92.4%	91.4%	92.2%	93.9%	102%	92.8%	99.7%	109%	104%	116%	97.7%	98.8%	98.2%	102%	112%	112%	95.6%	99.1%	92.7%	100%
COc1ccccc1N1CCN(CCCCN2C(=O)c3ccccc3C2=O)CC1 [NAN-190]	> 10 µM	> 10 µM	> 10 µM	> 10 µM	> 10 µM	0	0	0	0	0	95.5%	94.3%	107%	101%	102%	99.4%	94.5%	91.5%	94.3%	103%	99.7%	85.8%	99.2%	86.6%	94.8%	103%	100%	101%	94.7%	101%	91.6%	108%	94%	109%	103%
COc1cc(C#N)ccc1S(=O)(=O)Nc1ccc2c(c1)cc(C)c(=O)n2C [NI-57]	> 10 µM	> 10 µM	> 10 µM	> 10 µM	> 10 µM	0	0	0.6	0	0.7	98.7%	110%	101%	101%	104%	98.7%	103%	99.6%	95.7%	96%	99.1%	97.4%	94.8%	91.1%	83.5%	101%	98.2%	101%	98.5%	98.9%	106%	114%	102%	94.1%	85.3%
O=C(Nc1cc(C(F)(F)F)cc(C(F)(F)F)c1)Nc1c(Br)cc(Br)cc1-c1nnn[nH]1 [NS-5806]	> 10 µM	> 10 µM	> 10 µM	> 10 µM	> 10 µM	0	0	0	0	0	94.2%	95.4%	95.3%	98.2%	87.9%	98.8%	99.2%	105%	102%	102%	93.7%	97.8%	97.1%	98.2%	91.7%	98.6%	103%	94.6%	105%	98.9%	107%	95.3%	106%	96.6%	108%
